Results from PubChem BioAssay AID1745844 (Carcinogenic Potency Database (CPDB), 2022).
Values joined by “and” are separate entries in the source; they are usually repeats but may differ in a detail not shown here. Identical values can stand only once.

Test system: rodent lifetime carcinogenesis bioassay, tumor incidence TD50
Assay: carcinogenic potency in animals, long-term in vivo studies, CPDB compilation (AID 1745844)

**Q.** Which results are given for O=P(OCCCl)(OCCCl)OCCCl?
**A.** TD50 (mouse, strain B6C3F1, females, by gavage, site: Harderian gland, lesion: adenoma + carcinoma, dosed 104 weeks, study length 104 weeks): 1390 mg/kg/day; TD50 (mouse, strain B6C3F1, females, by gavage, site: any site (literature study), lesion: several types, types named in the paper, dosed 104 weeks, study length 104 weeks): 610 mg/kg/day; TD50 (mouse, strain B6C3F1, females, by gavage, site: liver, lesion: hepatocellular adenoma + hepatocellular carcinoma + neoplastic nodule, dosed 104 weeks, study length 104 weeks): 2870 mg/kg/day; TD50 (mouse, strain B6C3F1, females, by gavage, site: lung, lesion: alveolar/bronchiolar adenoma + alveolar/bronchiolar carcinoma, dosed 104 weeks, study length 104 weeks): 4380 mg/kg/day; TD50 (mouse, strain B6C3F1, females, by gavage, site: mammary gland, lesion: adenocarcinoma, dosed 104 weeks, study length 104 weeks): 3050 mg/kg/day; TD50 (mouse, strain B6C3F1, females, by gavage, site: uterus, lesion: endometrial stromal polyp, dosed 104 weeks, study length 104 weeks): 2420 mg/kg/day; TD50 (mouse, strain B6C3F1, males, by gavage, site: any site (literature study), lesion: several types, types named in the paper, dosed 104 weeks, study length 104 weeks): 807 mg/kg/day; TD50 (mouse, strain B6C3F1, males, by gavage, site: kidney, lesion: tubule adenoma + tubule carcinoma, dosed 104 weeks, study length 104 weeks): 3510 mg/kg/day and 6810 mg/kg/day; TD50 (mouse, strain B6C3F1, males, by gavage, site: kidney, lesion: tubule carcinoma, dosed 104 weeks, study length 104 weeks): 8450 mg/kg/day; TD50 (mouse, strain B6C3F1, males, by gavage, site: liver, lesion: hepatocellular adenoma + hepatocellular carcinoma + neoplastic nodule, dosed 104 weeks, study length 104 weeks): 569 mg/kg/day; TD50 (mouse, strain B6C3F1, males, by gavage, site: lung, lesion: alveolar/bronchiolar adenoma + alveolar/bronchiolar carcinoma, dosed 104 weeks, study length 104 weeks): 61700 mg/kg/day; TD50 (mouse, strain Slc:ddY, females, in feed, site: all sites, lesion: leukemia, dosed 78 weeks, study length 78 weeks): 4790 mg/kg/day; TD50 (mouse, strain Slc:ddY, females, in feed, site: any site (literature study), lesion: several types, types named in the paper, dosed 78 weeks, study length 78 weeks): 880 mg/kg/day; TD50 (mouse, strain Slc:ddY, females, in feed, site: forestomach, lesion: several types, types named in the paper, dosed 78 weeks, study length 78 weeks): 5500 mg/kg/day; TD50 (mouse, strain Slc:ddY, females, in feed, site: forestomach, lesion: squamous-cell carcinoma, dosed 78 weeks, study length 78 weeks): 8970 mg/kg/day; TD50 (mouse, strain Slc:ddY, females, in feed, site: liver, lesion: hepatocellular adenoma, dosed 78 weeks, study length 78 weeks): 23000 mg/kg/day; TD50 (mouse, strain Slc:ddY, males, in feed, site: any site (literature study), lesion: several types, types named in the paper, dosed 78 weeks, study length 78 weeks): 185 mg/kg/day; TD50 (mouse, strain Slc:ddY, males, in feed, site: kidney, lesion: renal-cell carcinoma, dosed 78 weeks, study length 78 weeks): 844 mg/kg/day; TD50 (mouse, strain Slc:ddY, males, in feed, site: kidney, lesion: several types, types named in the paper, dosed 78 weeks, study length 78 weeks): 539 mg/kg/day; TD50 (mouse, strain Slc:ddY, males, in feed, site: liver, lesion: hepatocellular carcinoma, dosed 78 weeks, study length 78 weeks): 28800 mg/kg/day; TD50 (mouse, strain Slc:ddY, males, in feed, site: liver, lesion: several types, types named in the paper, dosed 78 weeks, study length 78 weeks): 1690 mg/kg/day; TD50 (rat, strain Fischer 344, females, by gavage, site: any site (literature study), lesion: several types, types named in the paper, dosed 104 weeks, study length 104 weeks): 39.9 mg/kg/day; TD50 (rat, strain Fischer 344, females, by gavage, site: kidney, lesion: tubule adenoma, dosed 104 weeks, study length 104 weeks): 187 mg/kg/day; TD50 (rat, strain Fischer 344, females, by gavage, site: multiple organs, lesion: mononuclear-cell leukemia, dosed 104 weeks, study length 104 weeks): 90.2 mg/kg/day; TD50 (rat, strain Fischer 344, females, by gavage, site: thyroid gland, lesion: follicular-cell adenoma + follicular-cell carcinoma, dosed 104 weeks, study length 104 weeks): 203 mg/kg/day; TD50 (rat, strain Fischer 344, females, by gavage, site: thyroid gland, lesion: follicular-cell carcinoma, dosed 104 weeks, study length 104 weeks): 280 mg/kg/day; TD50 (rat, strain Fischer 344, females, by gavage, site: uterus, lesion: endometrial stromal sarcoma, dosed 104 weeks, study length 104 weeks): 589 mg/kg/day; TD50 (rat, strain Fischer 344, males, by gavage, site: adrenal medulla, lesion: pheochromocytoma benign, bilateral + pheochromocytoma, benign, dosed 104 weeks, study length 104 weeks): 49.5 mg/kg/day; TD50 (rat, strain Fischer 344, males, by gavage, site: any site (literature study), lesion: several types, types named in the paper, dosed 104 weeks, study length 104 weeks): 56.8 mg/kg/day; TD50 (rat, strain Fischer 344, males, by gavage, site: brain + cerebellum, meninges, lesion: granular-cell tumor, benign, dosed 104 weeks, study length 104 weeks): 705 mg/kg/day; TD50 (rat, strain Fischer 344, males, by gavage, site: kidney, lesion: tubule adenoma + tubule carcinoma, dosed 104 weeks, study length 104 weeks): 56.4 mg/kg/day; TD50 (rat, strain Fischer 344, males, by gavage, site: kidney, lesion: tubule adenoma, dosed 104 weeks, study length 104 weeks): 56.9 mg/kg/day; TD50 (rat, strain Fischer 344, males, by gavage, site: kidney, lesion: tubule carcinoma, dosed 104 weeks, study length 104 weeks): 8400 mg/kg/day; TD50 (rat, strain Fischer 344, males, by gavage, site: liver, lesion: hepatocellular adenoma + hepatocellular carcinoma + neoplastic nodule, dosed 104 weeks, study length 104 weeks): 633 mg/kg/day; TD50 (rat, strain Fischer 344, males, by gavage, site: multiple organs, lesion: mononuclear-cell leukemia, dosed 104 weeks, study length 104 weeks): 107 mg/kg/day; TD50 (rat, strain Fischer 344, males, by gavage, site: subcutaneous tissue, lesion: fibroma, dosed 104 weeks, study length 104 weeks): 246 mg/kg/day; TD50 (rat, strain Fischer 344, males, by gavage, site: thyroid gland, lesion: follicular-cell adenoma + follicular-cell carcinoma, dosed 104 weeks, study length 104 weeks): 338 mg/kg/day
